Assay results: ChEMBL document CHEMBL4483862, “Open-source discovery of chemical leads for next-generation chemoprotective antimalarials” (2018)

Tested on: Plasmodium berghei
Assay: Luciferase/luciferin-expressing antifolate-resistant parasites were used to infect a culture of HepG2 cells that were pre-incubated with compounds. Infected hepatocytes emit light due to the luciferase reaction. Assay results are presented as the percent inhibition of light emission compared to control. […]
Format: functional
Settings: sporozoite; for IC90: read-out: LUCIFERASE INFECTION ASSAY - IC90
[1] = read-out: LUCIFERASE INFECTION ASSAY - IC50

Structure (SMILES)	IC50 [1] [µM]	IC90 [µM]	also measured
CC(C)c1ccc(-c2nnc(NC(=O)c3cn4ccccc4n3)s2)cc1	9.54	> 10	
CCN(CC)S(=O)(=O)c1cccc(C(=O)N/N=C(\C)c2cc(Cl)ccc2Cl)c1		> 10	IC50 (PBLUC_HILL_SLOPE 2.08, PBLUC_R_SQUARED 0.0166, read-out: LUCIFERASE INFECTION ASSAY - IC50): 7.74 µM
Cn1cc(-c2cc3cnc(Nc4ccc(C(N)=O)cc4)cc3n2Cc2ccccc2)cn1	> 10	> 10	
CCC(C)NC(=O)c1c(NC(=O)c2cc(F)ccc2F)nc2ccc(C)cn12 (centres undefined)		3.36	IC50 (HEPG2TOX_HILL_SLOPE 5, HEPG2TOX_R_SQUARED 0.803, PBLUC_HILL_SLOPE 11.7, PBLUC_R_SQUARED 0.232, read-out: LUCIFERASE INFECTION ASSAY - IC50): 2.78 µM
CC1CCN(Cc2csc(NC(=O)c3ccc(SCc4cscn4)cc3)n2)CC1		9.76	IC50 (HEPG2TOX_HILL_SLOPE 2.61, HEPG2TOX_R_SQUARED 0.966, PBLUC_HILL_SLOPE 9.48, PBLUC_R_SQUARED 0.381, read-out: LUCIFERASE INFECTION ASSAY - IC50): 7.74 µM
CC(Sc1nnc(-c2ccccc2)c(-c2ccccc2)n1)C(=O)N1CCCC1 (centres undefined)		1.49	IC50 (HEPG2TOX_HILL_SLOPE 2.07, HEPG2TOX_R_SQUARED 0.202, PBLUC_HILL_SLOPE 16.4, PBLUC_R_SQUARED 0.575, read-out: LUCIFERASE INFECTION ASSAY - IC50): 1.3 µM
O=C(CN1CCCCC1)Nc1c(F)cccc1F	> 13	> 13	
FC(F)Oc1ccc(-c2cs/c(=N\c3cccnc3)n2CC2CCCO2)cc1 (centres undefined)	4.16	> 10	
CCOC(=O)Nc1nc2ccc(C(F)(F)F)cc2[nH]1		1.1	IC50 (HEPG2TOX_HILL_SLOPE 0.892, HEPG2TOX_R_SQUARED 0.914, PBLUC_HILL_SLOPE 2.52, PBLUC_R_SQUARED 0.681, read-out: LUCIFERASE INFECTION ASSAY - IC50): 0.459 µM
CN(C)CCNC(=O)c1ccc(-c2cnc3c(Nc4ccc(Oc5ccccc5)cc4)nccn23)cc1	> 6.7	> 6.7	
CC(NC(=O)c1cn(C)c2ccccc12)c1ccccn1 (centres undefined)	> 2	> 2	
C(=C1\CCc2cnc3scc[n+]3c21)/c1ccccc1		> 10	IC50 (HEPG2TOX_HILL_SLOPE 2.32, HEPG2TOX_R_SQUARED 0.938, read-out: LUCIFERASE INFECTION ASSAY - IC50): > 10 µM
C=C1CC2(C)C(=CC1=O)CCC1C2CCC2(C)C(O)CCC12 (centres undefined)		5.89	IC50 (HEPG2TOX_HILL_SLOPE 3.95, HEPG2TOX_R_SQUARED 0.554, PBLUC_HILL_SLOPE 10.4, PBLUC_R_SQUARED 0.356, read-out: LUCIFERASE INFECTION ASSAY - IC50): 4.77 µM
COc1cc2c(cc1NC(=O)c1cnn(C(C)(C)C)c1C)oc1ccccc12		3.66	IC50 (PBLUC_HILL_SLOPE 16.6, PBLUC_R_SQUARED 0.596, read-out: LUCIFERASE INFECTION ASSAY - IC50): 3.21 µM
Cc1cccc(C(=O)NCC(=O)Nc2ncc(C)s2)c1		> 10	IC50 (HEPG2TOX_HILL_SLOPE 123, HEPG2TOX_R_SQUARED 0.298, PBLUC_HILL_SLOPE 16, PBLUC_R_SQUARED 0.209, read-out: LUCIFERASE INFECTION ASSAY - IC50): 9.16 µM
CC(C)(C)c1cc(C(=O)NNC(=S)Nc2ccccc2)n(Cc2ccc(Cl)cc2Cl)n1		4.51	IC50 (FFLUC_HILL_SLOPE 12.6, FFLUC_R_SQUARED 0.389, HEPG2TOX_HILL_SLOPE 2.18, HEPG2TOX_R_SQUARED 0.945, PBLUC_HILL_SLOPE 8.72, PBLUC_R_SQUARED 0.517, read-out: LUCIFERASE INFECTION ASSAY - IC50): 3.51 µM
CN(Cc1ccc(C(=O)NC2CC2)cc1)c1ncccc1[N+](=O)[O-]		6.56	IC50 (PBLUC_HILL_SLOPE 96.1, PBLUC_R_SQUARED 0.262, read-out: LUCIFERASE INFECTION ASSAY - IC50): 6.41 µM
COc1ccnc(Nc2ccc3c(c2)nc2n3CCCCC2)n1		2.84	IC50 (FFLUC_HILL_SLOPE 0.925, FFLUC_R_SQUARED 0.902, HEPG2TOX_HILL_SLOPE 18.6, HEPG2TOX_R_SQUARED 0.895, PBLUC_HILL_SLOPE 0.753, PBLUC_R_SQUARED 0.781, read-out: LUCIFERASE INFECTION ASSAY - IC50): 0.154 µM
CC1CN(c2nc(N)c3c(N)nc4c(c3c2C#N)CC(=O)N4C2CCCC2)CC(C)O1 (centres undefined)	> 10	> 10	
COC(=O)c1occc1/C=C/C(=O)C12CC3CC(CC(C3)C1)C2		7.04	IC50 (HEPG2TOX_HILL_SLOPE 9.64, HEPG2TOX_R_SQUARED 0.941, PBLUC_HILL_SLOPE 4.67, PBLUC_R_SQUARED 0.564, read-out: LUCIFERASE INFECTION ASSAY - IC50): 4.4 µM
O=C(CN1CCn2cccc2C1c1ccccc1)N1CCc2sccc2C1 (centres undefined)		4.34	IC50 (PBLUC_HILL_SLOPE 14, PBLUC_R_SQUARED 0.298, read-out: LUCIFERASE INFECTION ASSAY - IC50): 3.71 µM

Structure (SMILES)	IC50 [1] [µM]	IC90 [µM]	also measured
O=C(Nc1ccc2c[nH]nc2c1)C1=NN(c2ccccc2)C(=O)CC1	> 9.9	> 9.9	
CC(=O)Nc1cccc(-c2cn3c(-c4ccc(Cl)cc4)cnc3cn2)c1		3.69	IC50 (PBLUC_HILL_SLOPE 3.14, PBLUC_R_SQUARED 0.81, read-out: LUCIFERASE INFECTION ASSAY - IC50): 1.83 µM
Cc1ccc(C(C)C)cc1OCc1nnc2n(C)c(=O)c3ccccc3n12	> 10	> 10	
COCCn1c(SC(C)C(=O)NCC2CCCO2)nc2scc(-c3ccc(F)cc3)c2c1=O (centres undefined)	> 10	> 10	
CC(=O)n1nc(NCc2cccc(Cl)c2)nc1NCc1cccc(Cl)c1		> 8.46	IC50 (PBLUC_HILL_SLOPE 1.95, PBLUC_R_SQUARED 0.375, read-out: LUCIFERASE INFECTION ASSAY - IC50): 4.3 µM
Cc1cc2oc(=O)cc(CN3CCC(c4c[nH]c5ccccc45)CC3)c2cc1C		> 10	IC50 (FFLUC_HILL_SLOPE 22.3, FFLUC_R_SQUARED 0.464, read-out: LUCIFERASE INFECTION ASSAY - IC50): > 10 µM
CC1N(C)c2ccc(/C=C/c3sc4ccccc4[n+]3C)cc2C1(C)C (centres undefined)		4.5	IC50 (HEPG2TOX_HILL_SLOPE 3.18, HEPG2TOX_R_SQUARED 0.945, PBLUC_HILL_SLOPE 1.61, PBLUC_R_SQUARED 0.672, read-out: LUCIFERASE INFECTION ASSAY - IC50): 1.15 µM
Oc1c(Br)cc(/C=C/c2nc3cc(Cl)ccc3o2)cc1Br		> 10	IC50 (HEPG2TOX_HILL_SLOPE 9.25, HEPG2TOX_R_SQUARED 0.294, read-out: LUCIFERASE INFECTION ASSAY - IC50): > 10 µM
CSc1sc(C(=O)N/N=C/c2ccc(Cl)cc2)c2c1C1(CCC2)SCCS1	> 7.25	> 7.25	
O=C(c1cnc(Nc2cccc(Oc3ccccc3)c2)[nH]1)c1ccccc1F		3.36	IC50 (HEPG2TOX_HILL_SLOPE 2.89, HEPG2TOX_R_SQUARED 0.712, PBLUC_HILL_SLOPE 12, PBLUC_R_SQUARED 0.715, read-out: LUCIFERASE INFECTION ASSAY - IC50): 2.8 µM
CCN1CCCC1CNCC(=O)Nc1cc(Cl)ccc1C#N (centres undefined)	> 10	> 10	
O=C(Nc1nc(-c2ccccn2)cs1)c1ccc(=O)n(Cc2ccccc2)n1		9.95	IC50 (PBLUC_HILL_SLOPE 15.2, PBLUC_R_SQUARED 0.0748, read-out: LUCIFERASE INFECTION ASSAY - IC50): 8.61 µM
COc1ccc(-c2cnc3ccc(-c4cccc(Cl)c4)nn23)cc1OC		5.25	IC50 (FFLUC_HILL_SLOPE 18.1, FFLUC_R_SQUARED 0.385, HEPG2TOX_HILL_SLOPE 1.42, HEPG2TOX_R_SQUARED 0.94, PBLUC_HILL_SLOPE 1.13, PBLUC_R_SQUARED 0.747, read-out: LUCIFERASE INFECTION ASSAY - IC50): 0.748 µM
O=C(CN1CC=C(c2ccccc2)CC1)NC(c1ccccc1)c1ccccc1	> 10	> 10	
OC(COc1cccc(C(F)(F)F)c1)CN1CCN(c2nc(-c3ccccc3)ns2)CC1 (centres undefined)		> 7.1	IC50 (PBLUC_HILL_SLOPE 15.4, PBLUC_R_SQUARED 0.391, read-out: LUCIFERASE INFECTION ASSAY - IC50): 6.73 µM
O=c1cc(NCCC2=CCCCC2)c2ccccc2o1		3.21	IC50 (FFLUC_HILL_SLOPE 16, FFLUC_R_SQUARED 0.221, HEPG2TOX_HILL_SLOPE 2.34, HEPG2TOX_R_SQUARED 0.809, PBLUC_HILL_SLOPE 2.17, PBLUC_R_SQUARED 0.461, read-out: LUCIFERASE INFECTION ASSAY - IC50): 1.17 µM
Cc1nc2ccccc2c(=O)n1-c1ccc(C(=O)NCCCc2ccccc2)cc1	> 10	> 10	
CC12CCC(C(=O)N3CCN(c4cccc(Cl)c4)CC3)(OC1=O)C2(C)C (centres undefined)		> 8.76	IC50 (PBLUC_HILL_SLOPE 1.72, PBLUC_R_SQUARED 0.0862, read-out: LUCIFERASE INFECTION ASSAY - IC50): > 8.76 µM
COCCNC(=S)NNc1ccc2ccccc2c1		1.19	IC50 (HEPG2TOX_HILL_SLOPE 2.26, HEPG2TOX_R_SQUARED 0.95, PBLUC_HILL_SLOPE 42.9, PBLUC_R_SQUARED 0.446, read-out: LUCIFERASE INFECTION ASSAY - IC50): 1.13 µM
NC(=O)c1c(NC(=O)NCc2cccnc2)sc2c1CCC2		> 10.4	IC50 (HEPG2TOX_HILL_SLOPE 6.58, HEPG2TOX_R_SQUARED 0.0674, read-out: LUCIFERASE INFECTION ASSAY - IC50): > 10.4 µM
COc1ccc(Cn2c(C)nc3c(cnn3-c3ccc(Cl)cc3)c2=O)cc1		> 8.67	IC50 (HEPG2TOX_HILL_SLOPE 7.21, HEPG2TOX_R_SQUARED 0.304, PBLUC_HILL_SLOPE 6.35, PBLUC_R_SQUARED 0.427, read-out: LUCIFERASE INFECTION ASSAY - IC50): 7.48 µM
